Test results: patent US20250154109A1, “SODIUM CHANNEL BLOCKING COMPOUNDS, DERIVATIVES THEREOF, AND METHODS OF THEIR USE” (LATIGO BIOTHERAPEUTICS, INC, priority 2022, published 2025)
Where two headings read alike, the source gives them in different places.

Target: human Nav1.8 (Homo sapiens, UniProt Q9Y5Y9)
Assay: SyncroPatch384PE assay (automated patch clamp)
Type: cell-based
Details: human Nav1.8/b3 CHO cells
Procedure: Compounds were tested on recombinant human Nav1.8/b3 stably transfected CHO cells using the SyncroPatch384PE system (Nanion Technologies), an automated patch clamp device. Cells were cultured at 37° C./5% CO2 in Ham's F-12 supplemented with 10% fetal bovine serum, 100 U/mL penicillin G sodium, […] streptomycin sulfate and selection antibiotics (0.01 mg/mL Blasticidin, 0.4 mg/mL Zeocin and 0.25 mg/mL Hygromycin). On the day of the recordings, cells in culture dishes were washed twice with Hank's Balanced Salt Solution (HBSS) and treated with Accutase for approximately 20 minutes. Immediately before use in the SynchroPatch384PE using an 8-hole NPC-384 chip, the cells were washed in HBSS to remove the Accutase and re-suspended in extracellular solution. All experiments were performed at ambient temperature. Intracellular solution contained (mM): CsCl, 50; CsF, 90; MgCl2, 5; EGTA, 1; HEPES, 10; pH adjusted to 7.2 with CsOH. Extracellular solution contained (mM): NaCl, 137; KCl, 4.0; CaCl2), 3.8; MgCl2, 1; HEPES, 10; Glucose, 10; pH adjusted to 7.4 with NaOH. 100 nM tetrodotoxin (TTX) was added to the extracellular solution to block endogenous TTX-sensitive sodium currents.
Compounds were tested in quadruplicate in 0.3% DMSO and 0.03% pluronic Acid. Compounds were diluted 1:3.33 in extracellular solution to create an 8-point concentration response curve. Each plate contained a historical positive control and up to ten compounds. 300 μM tetracaine and 0.3% DMSO+0.03% pluronic acid were used as high and low controls respectively.
Whole cell patch clamp recordings were conducted according to Nanion's standard procedure for SyncroPatch384PE®. Cells were held at a holding potential of −120 mV. A depolarization step to 10 mV for 30 ms was applied (P1 measurement), followed by a hyperpolarization step to −100 mV for 100 ms. An inactivation step at −35 mV for 10 sec was applied before stepping to −100 mV for 20 ms, followed by a step to 10 mV for 30 ms (P2 measurement) and then back to −100 mV for 30 ms. Sweep interval was 15 sec. Following establishment of the whole-cell configuration in extracellular solution, cells were washed in extracellular solution containing 0.3% DMSO and 0.03% pluronic acid to stabilize the baseline current. Compounds were then applied by the SynchroPatch384 PE system into each well and the current was recorded for five minutes in extracellular solution, followed by application of tetracaine to achieve full block at the end of experiment. The potency of the compounds was assessed on two read-outs, resting state block (P1 measurement) or inactivated state block (P2 measurement) to obtain IC50 values. Values were normalized to high (tetracaine) and low (DMSO+pluronic acid) controls.
Examples 1 to 219 and Examples 225 to 236 are assayed using SyncroPatch384PE assay described above.

[1] = inactivated state block (P2 measurement), read-out: P2 IC50
[2] = resting state block (P1 measurement), read-out: P1 IC50

Sequence of human Nav1.8 (Q9Y5Y9 whole entry): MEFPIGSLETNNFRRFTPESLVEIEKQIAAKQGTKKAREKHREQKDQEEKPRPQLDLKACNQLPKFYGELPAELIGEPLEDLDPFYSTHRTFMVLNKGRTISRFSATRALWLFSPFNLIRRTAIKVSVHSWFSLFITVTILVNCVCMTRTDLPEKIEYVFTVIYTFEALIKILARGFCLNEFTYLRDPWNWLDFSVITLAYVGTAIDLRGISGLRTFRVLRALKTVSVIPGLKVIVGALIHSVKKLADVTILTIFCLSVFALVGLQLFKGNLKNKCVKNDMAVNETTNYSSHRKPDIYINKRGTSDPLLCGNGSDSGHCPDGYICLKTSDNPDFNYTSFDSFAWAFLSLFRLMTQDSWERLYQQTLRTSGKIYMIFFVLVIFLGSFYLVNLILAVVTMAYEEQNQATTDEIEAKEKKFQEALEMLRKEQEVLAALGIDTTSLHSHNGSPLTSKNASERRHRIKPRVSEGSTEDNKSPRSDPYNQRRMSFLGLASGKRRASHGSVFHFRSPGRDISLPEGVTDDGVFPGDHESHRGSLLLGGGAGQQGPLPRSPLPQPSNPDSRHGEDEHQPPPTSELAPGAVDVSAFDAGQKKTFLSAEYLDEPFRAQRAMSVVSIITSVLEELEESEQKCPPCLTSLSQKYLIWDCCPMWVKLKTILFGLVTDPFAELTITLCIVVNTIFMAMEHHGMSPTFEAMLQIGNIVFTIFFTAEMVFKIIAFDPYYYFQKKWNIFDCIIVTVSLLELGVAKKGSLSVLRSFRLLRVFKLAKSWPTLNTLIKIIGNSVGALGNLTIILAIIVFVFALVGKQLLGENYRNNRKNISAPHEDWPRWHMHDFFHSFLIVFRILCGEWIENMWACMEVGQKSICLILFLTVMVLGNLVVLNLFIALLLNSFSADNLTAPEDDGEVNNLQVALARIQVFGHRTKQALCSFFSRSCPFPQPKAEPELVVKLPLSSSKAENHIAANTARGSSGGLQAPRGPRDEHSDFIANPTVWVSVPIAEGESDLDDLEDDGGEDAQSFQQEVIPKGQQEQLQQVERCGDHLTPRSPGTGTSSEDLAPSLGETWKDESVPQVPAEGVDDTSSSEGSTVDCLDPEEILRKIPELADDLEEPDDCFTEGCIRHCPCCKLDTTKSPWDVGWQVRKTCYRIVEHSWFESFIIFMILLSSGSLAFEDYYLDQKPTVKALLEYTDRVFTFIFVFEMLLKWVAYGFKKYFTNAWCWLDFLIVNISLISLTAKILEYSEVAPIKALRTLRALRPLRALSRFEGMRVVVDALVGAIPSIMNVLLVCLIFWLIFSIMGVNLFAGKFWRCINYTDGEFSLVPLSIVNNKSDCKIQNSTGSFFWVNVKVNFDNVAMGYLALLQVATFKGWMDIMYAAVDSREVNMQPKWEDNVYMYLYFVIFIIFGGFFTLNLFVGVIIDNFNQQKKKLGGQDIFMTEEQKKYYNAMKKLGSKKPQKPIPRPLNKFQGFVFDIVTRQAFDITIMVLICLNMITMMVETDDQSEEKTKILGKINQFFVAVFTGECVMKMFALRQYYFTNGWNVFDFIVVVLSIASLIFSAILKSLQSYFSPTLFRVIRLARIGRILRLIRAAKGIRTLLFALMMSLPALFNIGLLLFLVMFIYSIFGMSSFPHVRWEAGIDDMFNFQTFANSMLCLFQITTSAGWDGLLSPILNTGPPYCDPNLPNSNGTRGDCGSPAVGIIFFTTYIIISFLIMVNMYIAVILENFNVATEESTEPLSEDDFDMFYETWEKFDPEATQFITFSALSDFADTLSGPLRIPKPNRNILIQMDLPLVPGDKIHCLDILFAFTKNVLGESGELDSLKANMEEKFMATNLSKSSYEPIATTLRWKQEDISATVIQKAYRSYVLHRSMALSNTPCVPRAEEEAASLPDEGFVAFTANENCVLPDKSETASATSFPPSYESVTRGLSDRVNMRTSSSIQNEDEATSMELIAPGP

Row | Structure (SMILES) | IC50 [1] [nM] | IC50 [2] [nM]
1 | COc1ccc(-c2nnc(N3CCCC(F)(F)CC3)c(C(=O)Nc3cccc([S@@](C)(=N)=O)c3)c2C)cc1 (single isomer, unassigned) [Example 137] | > 200 | > 200
2 | COc1ccc(-c2nnc(N3CCCC(F)(F)CC3)c(C(=O)Nc3cccc([S@](C)(=N)=O)c3)c2C)cc1 (single isomer, unassigned) [Example 138] | 100 to 200 | > 200
3 | Cc1nc(N2CCCC(F)(F)CC2)c(C(=O)Nc2cccc([S@@](C)(=N)=O)c2)c(C)c1C(F)(F)F (single isomer, unassigned) [Example 185] | ≤ 5 | ≤ 5
4 | Cc1nc(N2CCCC(F)(F)CC2)c(C(=O)Nc2cccc([S@](C)(=N)=O)c2)c(C)c1C(F)(F)F (single isomer, unassigned) [Example 186] | ≤ 5 | ≤ 5
5 | Cc1c(C(F)(F)F)cnc(N2CCCC(F)(F)CC2)c1C(=O)Nc1ccnc([S@@](C)(=N)=O)c1 (single isomer, unassigned) [Example 188] | ≤ 5 | ≤ 5
6 | Cc1c(C(F)(F)F)cnc(N2CCCC(F)(F)CC2)c1C(=O)Nc1ccnc([S@](C)(=N)=O)c1 (single isomer, unassigned) [Example 189] | ≤ 5 | ≤ 5
7 | CS(=N)(=O)c1cccc(NC(=O)c2cc(C(F)(F)F)nnc2N2CCCCCC2)c1 (centres unmarked) [Example 1, 3-(Azepan-1-yl)-N-(3-(S-methylsulfonimidoyl)phenyl)-6-(trifluoromethyl)pyridazine-4-carboxamide] | > 200 | > 200
8 | CS(=N)(=O)c1cc(NC(=O)c2cc(C(F)(F)F)nnc2N2CCCCCC2)ccn1 (centres unmarked) [Example 2, 3-(azepan-1-yl)-N-{2-[imino(methyl)oxo-λ^6-sulfanyl]pyridin-4-yl}-6-(trifluoromethyl)pyridazine-4-carboxamide] | > 200 | > 200
9 | Cc1nc(N2CCCC(F)(F)CC2)c(C(=O)Nc2cccc(S(C)(=N)=O)c2)cc1C(F)(F)F (centres unmarked) [Example 3, 2-(4,4-difluoroazepan-1-yl)-6-methyl-N-(3-(S-methylsulfonimidoyl)phenyl)-5-(trifluoromethyl)nicotinamide] | ≤ 5 | ≤ 5
10 | Cc1nc(N2CCCC(F)(F)CC2)c(C(=O)Nc2cccc([S@@](C)(=N)=O)c2)cc1C(F)(F)F [Example 5, (S)-2-(4,4-Difluoroazepan-1-yl)-6-methyl-N-(3-(S-methylsulfonimidoyl)phenyl)-5-(trifluoromethyl)nicotinamide] | ≤ 5 | ≤ 5
11 | CS(=N)(=O)c1cccc(NC(=O)c2cc(C(F)(F)F)nnc2N2CCCC(F)(F)CC2)c1 (centres unmarked) [Example 6, 3-(4,4-difluoroazepan-1-yl)-N-(3-(S-methylsulfonimidoyl)phenyl)-6-(trifluoromethyl)pyridazine-4-carboxamide] | 5 to 50 | 5 to 50
12 | Cc1c(C(F)(F)F)nnc(N2CCCCCC2)c1C(=O)Nc1cccc(S(C)(=N)=O)c1 (centres unmarked) [Example 7, 3-(azepan-1-yl)-5-methyl-N-(3-(S-methylsulfonimidoyl)phenyl)-6-(trifluoromethyl)pyridazine-4-carboxamide] | 100 to 200 | 100 to 200
13 | Cc1c(C(F)(F)F)nnc(N2CCCCCC2)c1C(=O)N=S(C)(=O)c1cccc(N)c1 (centres unmarked) [Example 8, N-((3-aminophenyl)(methyl)(oxo)-λ^6-sulfaneylidene)-3-(azepan-1-yl)-5-methyl-6-(trifluoromethyl)pyridazine-4-carboxamide] | > 200 | > 200
14 | CS(=N)(=O)c1cccc(NC(=O)c2nnc(C(F)(F)F)cc2N2CCCCCC2)c1 (centres unmarked) [Example 9, 4-(azepan-1-yl)-N-(3-(S-methylsulfonimidoyl)phenyl)-6-(trifluoromethyl)pyridazine-3-carboxamide] | > 200 | > 200
15 | Cc1c(C(F)(F)F)nnc(N2CCCCCC2)c1C(=O)Nc1cccc([S@](C)(=N)=O)c1 [Example 10, (R)-3-(azepan-1-yl)-5-methyl-N-(3-(S-methylsulfonimidoyl)phenyl)-6-(trifluoromethyl)pyridazine-4-carboxamide] | 50 to 100 | 50 to 100
16 | Cc1c(C(F)(F)F)nnc(N2CCCCCC2)c1C(=O)Nc1cccc([S@@](C)(=N)=O)c1 [Example 11, (S)-3-(azepan-1-yl)-5-methyl-N-(3-(S-methylsulfonimidoyl)phenyl)-6-(trifluoromethyl)pyridazine-4-carboxamide] | 100 to 200 | 100 to 200
17 | Cc1nc(N2CCC3(CC2)CC3)c(C(=O)Nc2cccc(S(C)(=N)=O)c2)cc1Cl (centres unmarked) [Example 12, 5-chloro-6-methyl-N-(3-(S-methylsulfonimidoyl)phenyl)-2-(6-azaspiro[2.5]octan-6-yl)nicotinamide] | ≤ 5 | ≤ 5
18 | C=CCCc1ccc(C(=O)Nc2cccc(S(C)(=N)=O)c2)c(N2CCCC(F)(F)CC2)n1 (centres unmarked) [Example 13, 6-(3-Buten-1-yl)-2-(4,4-difluoroazepan-1-yl)-N-(3-(S-methylsulfonimidoyl)phenyl)nicotinamide] | ≤ 5 | ≤ 5
19 | CS(=N)(=O)c1cccc(NC(=O)c2cc(C(F)(F)F)nnc2N2CCC3(CC2)CC3)c1 (centres unmarked) [Example 14, N-(3-(S-methylsulfonimidoyl)phenyl)-3-(6-azaspiro[2.5]octan-6-yl)-6-(trifluoromethyl)pyridazine-4-carboxamide] | > 200 | > 200
20 | Cc1nc(N2CCCC(F)(F)CC2)c(C(=O)Nc2cccc(S(C)(=N)=O)c2)cc1Cl (centres unmarked) [Example 15, 5-chloro-2-(4,4-difluoroazepan-1-yl)-6-methyl-N-(3-(S-methylsulfonimidoyl)phenyl)nicotinamide] | ≤ 5 | ≤ 5
21 | Cc1nc(N2CCCC(F)(F)CC2)c(C(=O)Nc2cccc([S@](C)(=N)=O)c2)cc1Cl [Example 16, (R)-5-chloro-2-(4,4-difluoroazepan-1-yl)-6-methyl-N-(3-(S-methylsulfonimidoyl)phenyl)nicotinamide] | ≤ 5 | ≤ 5
22 | C[S@@](=N)(=O)c1cccc(NC(=O)c2cc(C(F)(F)F)nnc2N2CCCC(F)(F)CC2)c1 [Example 18, (R)-3-(4,4-difluoroazepan-1-yl)-N-(3-(S-methylsulfonimidoyl)phenyl)-6-(trifluoromethyl)pyridazine-4-carboxamide] | 100 to 200 | > 200
23 | C[S@](=N)(=O)c1cccc(NC(=O)c2cc(C(F)(F)F)nnc2N2CCCC(F)(F)CC2)c1 [Example 19, (S)-3-(4,4-difluoroazepan-1-yl)-N-(3-(S-methylsulfonimidoyl)phenyl)-6-(trifluoromethyl)pyridazine-4-carboxamide] | 100 to 200 | > 200
24 | Cc1c(-c2ccccc2)nnc(N2CCCC(F)(F)CC2)c1C(=O)Nc1cccc(S(C)(=N)=O)c1 (centres unmarked) [Example 20, 3-(4,4-difluoroazepan-1-yl)-5-methyl-N-(3-(S-methylsulfonimidoyl)phenyl)-6-phenylpyridazine-4-carboxamide] | 50 to 100 | 50 to 100
25 | CS(=N)(=O)c1cccc(NC(=O)c2nnc(C(F)(F)F)cc2N2CCCC(F)(F)CC2)c1 (centres unmarked) [Example 21, 4-(4,4-difluoroazepan-1-yl)-N-(3-(S-methylsulfonimidoyl)phenyl)-6-(trifluoromethyl)pyridazine-3-carboxamide] | > 200 | > 200
